What all share (type): functional, organism-based
Assay [1] deals with Plasmodium falciparum. Kind of assay: Antimalarial activity against chloroquine-sensitive Plasmodium falciparum D6 assessed as inhibition of [3H]hypoxanthine incorporation after 96 hrs by microtiter plate scintillation counting.
Assay [2] relates to Plasmodium falciparum. Kind of assay: Antimalarial activity against chloroquine-,pyrimethamine-resistant Plasmodium falciparum W2 assessed as inhibition of [3H]hypoxanthine incorporation after 96 hrs by microtiter plate scintillation counting.
The subject of assay [3] is Plasmodium falciparum. Kind of assay: Antimalarial activity against multidrug-resistant Plasmodium falciparum TM91C235 assessed as inhibition of [3H]hypoxanthine incorporation after 96 hrs by microtiter plate scintillation counting.

pIC50: −log10 of the molar value.

As usually defined, the pIC50 is the negative decadic logarithm of the IC50, by convention in mol/L.

On to `CC[C@H]1OC(=O)[C@H](C)[C@@H](O[C@H]2C[C@@](C)(OC)[C@@H](O)[C@H](C)O2)[C@H](C)[C@@H](O[C@@H]2O[C@H](C)C[C@H](N(C)C)[C@H]2O)[C@](C)(O)C[C@@H](C)CN(CCCNC(=O)NCCc2cccs2)[C@H](C)[C@@H](O)[C@]1(C)O`, for which the pIC50 in the assay with Plasmodium falciparum [1] is 6.03; with Plasmodium falciparum [2] it was 5.98; with Plasmodium falciparum [3], 6.39.
In the case of `CC[C@H]1OC(=O)[C@H](C)[C@@H](O[C@H]2C[C@@](C)(OC)[C@@H](O)[C@H](C)O2)[C@H](C)[C@@H](O[C@@H]2O[C@H](C)C[C@H](N(C)C)[C@H]2O)[C@](C)(O)C[C@@H](C)CN(CCCNC(=S)Nc2ccc(S(=O)(=O)N3CCCCC3)cc2)[C@H](C)[C@@H](O)[C@]1(C)O`, the results for the pIC50 in the assay with Plasmodium falciparum [1], with Plasmodium falciparum [2] and in the assay on Plasmodium falciparum [3] were 6.76, 7.28 and 7.17, respectively.
In the case of `CC[C@H]1OC(=O)[C@H](C)[C@@H](O[C@H]2C[C@@](C)(OC)[C@@H](O)[C@H](C)O2)[C@H](C)[C@@H](O[C@@H]2O[C@H](C)C[C@H](N(C)C)[C@H]2O)[C@](C)(O)C[C@@H](C)CN(CCCNC(=S)NC(C)C)[C@H](C)[C@@H](O)[C@]1(C)O`, the pIC50 is 5.58 in the assay on Plasmodium falciparum [1], 5.89 with Plasmodium falciparum [2] and 6.37 with Plasmodium falciparum [3].
For the molecule `CC[C@H]1OC(=O)[C@H](C)[C@@H](O[C@H]2C[C@@](C)(OC)[C@@H](O)[C@H](C)O2)[C@H](C)[C@@H](O[C@@H]2O[C@H](C)C[C@H](N(C)C)[C@H]2O)[C@](C)(O)C[C@@H](C)CN(CCCNC(=S)Nc2ccc(Cl)cc2)[C@H](C)[C@@H](O)[C@]1(C)O`, the pIC50 in the assay on Plasmodium falciparum [1] is 6.73; in the assay with Plasmodium falciparum [2] it was 7.27; in the assay on Plasmodium falciparum [3], 6.97.
On to `CCc1ccccc1NC(=S)NCCCN1C[C@H](C)C[C@@](C)(O)[C@H](O[C@@H]2O[C@H](C)C[C@H](N(C)C)[C@H]2O)[C@@H](C)[C@H](O[C@H]2C[C@@](C)(OC)[C@@H](O)[C@H](C)O2)[C@@H](C)C(=O)O[C@H](CC)[C@@](C)(O)[C@H](O)[C@H]1C`, for which the pIC50 in the assay with Plasmodium falciparum [1] was 6.35; in the assay with Plasmodium falciparum [2], 7.02; with Plasmodium falciparum [3] it was 6.60.
On to `CC[C@H]1OC(=O)[C@H](C)[C@@H](O[C@H]2C[C@@](C)(OC)[C@@H](O)[C@H](C)O2)[C@H](C)[C@@H](O[C@@H]2O[C@H](C)C[C@H](N(C)C)[C@H]2O)[C@](C)(O)C[C@@H](C)CN(CCCNC(=S)Nc2ccccc2F)[C@H](C)[C@@H](O)[C@]1(C)O`, for which the figures for the pIC50 in the assay with Plasmodium falciparum [1], in the assay on Plasmodium falciparum [2] and in the assay with Plasmodium falciparum [3] were 6.01, 6.40 and 6.91, respectively.
In the case of `CC[C@H]1OC(=O)[C@H](C)[C@@H](O[C@H]2C[C@@](C)(OC)[C@@H](O)[C@H](C)O2)[C@H](C)[C@@H](O[C@@H]2O[C@H](C)C[C@H](N(C)C)[C@H]2O)[C@](C)(O)C[C@@H](C)CN(CCCNC(=O)Nc2c(C)noc2C)[C@H](C)[C@@H](O)[C@]1(C)O`, the pIC50 in the assay on Plasmodium falciparum [1], in the assay on Plasmodium falciparum [2] and in the assay on Plasmodium falciparum [3] was 4.89 in each case.
In the case of `CC[C@H]1OC(=O)[C@H](C)[C@@H](O[C@H]2C[C@@](C)(OC)[C@@H](O)[C@H](C)O2)[C@H](C)[C@@H](O[C@@H]2O[C@H](C)C[C@H](N(C)C)[C@H]2O)[C@](C)(O)C[C@@H](C)CN(CCCNC(=S)Nc2ccc(Cl)c(C(F)(F)F)c2)[C@H](C)[C@@H](O)[C@]1(C)O`, the figures for the pIC50 with Plasmodium falciparum [1], in the assay with Plasmodium falciparum [2] and in the assay on Plasmodium falciparum [3] were 7.27, 7.46 and 7.25, respectively.
Take `CC[C@H]1OC(=O)[C@H](C)[C@@H](O[C@H]2C[C@@](C)(OC)[C@@H](O)[C@H](C)O2)[C@H](C)[C@@H](O[C@@H]2O[C@H](C)C[C@H](N(C)C)[C@H]2O)[C@](C)(O)C[C@@H](C)CN(CCCNC(=S)N[C@H]2CCCC[C@H]2OCc2ccccc2)[C@H](C)[C@@H](O)[C@]1(C)O`: the pIC50 in the assay on Plasmodium falciparum [1] was 6.19; in the assay with Plasmodium falciparum [2], 6.56; in the assay with Plasmodium falciparum [3], 6.90.
For `CC[C@H]1OC(=O)[C@H](C)[C@@H](O[C@H]2C[C@@](C)(OC)[C@@H](O)[C@H](C)O2)[C@H](C)[C@@H](O[C@@H]2O[C@H](C)C[C@H](N(C)C)[C@H]2O)[C@](C)(O)C[C@@H](C)CN(CCCNC(=S)NCCCN2CCOCC2)[C@H](C)[C@@H](O)[C@]1(C)O`, the results for the pIC50 in the assay on Plasmodium falciparum [1], in the assay with Plasmodium falciparum [2] and in the assay on Plasmodium falciparum [3] were 5.15, 5.90 and 5.29, respectively.

Values taken from ChEMBL document CHEMBL1681728, “An automated, polymer-assisted strategy for the preparation of urea and thiourea derivatives of 15-membered azalides as potential antimalarial chemotherapeutics” (Bioorg Med Chem, 2011).
